Consider 13 compounds from patent US11013719B2, “Sunitinib formulations and methods for use thereof in treatment of glaucoma” (The Johns Hopkins University, priority 2014, dated 2021).

The subject of one data set is optic nerve axons. The experiment in a line: Rat laser-induced ocular hypertension (glaucoma model). In kind it is in vivo, Wistar rats. Particulars: for Neuroprotection in the glaucoma model: intravitreal PLGA microspheres / slow release formulation. The procedure: (§1) 6-week old male Wistar rats were anesthetized with ketamine/xylazine. A partial periotomy was made to expose the sclera. The injection site was approximately 1 mm posterior to the ora serrata, and the injection glass pipet was angled towards the optic disc in order to avoid lens injury. 5 μL (10 μg) of PLGA microspheres were injected with a glass pipet and Hamilton syringe.
Intraocular pressure (IOP) was unilaterally elevated by laser treatment of the trabecular meshwork as previously described^7. Briefly, 6-week old Wistar male rats were anesthetized with ketamine/xylazine. On two consecutive weeks, 40-50 532 nm diode laser spots were applied to the prelimbal region (50 μm diameter, 600 mW power and 0.6 seconds duration). Under anesthesia, the IOP of laser-treated and fellow eyes was measured with TonoLab one and three days after laser treatment. Four weeks following laser treatment, rats were perfused with 4% paraformaldehyde in phosphate buffer. Optic nerves were isolated, postfixed with 1% osmium tetroxide, embedded in epoxy resin and stained with 1% toluidine blue. Images from 10 random and nonoverlapping fields were taken with 100× oil phase contrast objective. The area of entire optic nerve cross-sections were imaged with 10× magnification, and used with axon counts from the 10 field to derive axon counts per nerve. The laser treatment and acquisition of optic nerve images were performed in a masked fashion.

The next data set relates to immunopanned RGCs. As to the kind of experiment: Survival of immunopanned primary RGCs in culture. Conditions: for Neuroprotective (survival-promoting) activity on primary RGCs in culture: increasing doses, 72 hours in culture; for Toxicity in primary RGC culture: nanomolar doses. In kind it is cell-based, mice. The protocol:
All animal use was in accordance with ARVO Statement for the Use of Animals, and all the experimental procedures were performed in compliance with animal protocols approved by the IACUC at Johns Hopkins University. Retinas were isolated from postnatal 0-5 day mice and dissociated with papain. Microglia was immunodepleted with anti-CD11b conjugated Dynabeads. The suspension of retinal cells were immunopanned on plates pre-conjugated with anti-Thy1.2 antibody (Serotec, MCA028) and anti-mouse IgM at room temperature (RT). After washing, RGCs were released from the plate by a cell lifter, counted, and seeded at a density of 10,000 per well in 96-well plates in the media composed of Neurobasal, B27, N2 supplement, L-glutamine, and penicillin/streptomycin. […] Images were taken from portions of each well with Cellomics Kinetscan, and cell survival was quantified and calculated with the algorithms in Cellomics Neuroprofiling package. As indicated, RGC viability was alternatively measured by CellTiter-Glo luminescence (Promega).
For siRNA-based screening, the siRNAs from the Sigma Mission Mouse Kinome library were complexed with NeuroMag (Oz Biosciences) at a final concentration of 20 nM. […] Confirmatory siRNAs were obtained from both Dharmacon and Ambion. […] RGCs were cultured for 48 h, and cell viability was analyzed on a plate reader (ViewLux, Perkin Elmer) using the bioluminescent CellTiterGlo (Promega) assay. Concentration response curves were created using CurveFit (NIH NCATS).

For data set [1], the system named is RGCs. The experiment in a line: Rat optic nerve transection after intravitreal microspheres. In kind it is in vivo, Wistar rats. The procedure:
as §1
The optic nerve was exposed by a partial peritomy and intraorbital dissection of the extraocular muscles, and then transected with a 25-gauge needle. 4-Di-10-ASP were then applied to the proximal nerve stump. Care was taken to avoid vascular injury during the transection, and retinal perfusion was examined after nerve transection. Two weeks after transection, rats were sacrificed and enucleated. Retinas were flatmounted, imaged with confocal microscopy and the number of 4-Di-10-ASP-labeled cells with RGC morphology was quantified. Imaging and quantification of RGC survival were performed in a masked fashion.

Another data set deals with DLK. As to the kind of experiment: DLK signaling in immunopanned RGCs (Western blot of phospho-MKK7 and phospho-JNK). In kind it is cell-based, mice. Particulars: same concentrations that increase RGC survival. The protocol:
Western blots were performed according to the standard protocol. The following antibodies were from Cell Signaling Technology: Phospho-JNK, Thr183/Tyr185 (4671); JNK (9258); Phospho-MKK7 (4171), and MKK7 (4172). Monoclonal anti-alpha-tubulin antibody (T6074) was purchased from Sigma. DLK rabbit polyclonal was provided by S. Hirai.
To assess sunitinib's effect on DLK signaling in RGCs, immunopanned cells were cultured in the presence of increasing amounts of sunitinib.

Data set [2] is described as follows: Solubility of sunitinib in aqueous solution. In kind it is physicochemical.
Data set [3] relates to RGCs. The experiment in a line: Whole-cell patch-clamp recordings from RGCs at two weeks in culture. Background: The patch-clamp technique gives a direct electrical read-out from membranes.
Source text: Recordings were made by using the whole-cell patch-clamp technique in both current- and voltage-clamp modes with an Axopatch 200B. Data were low-pass filtered at 1 kHz (Bessel) and sampled at 10 kHz. […] The recording pipette was filled with the following intracellular solution (in mM): 100 K-gluconate, 50 KCl, 20 HEPES, 10 EGTA, 5 MgCl2, 2 ATP, 0.1 GTP, pH adjusted to 7.33 with KOH. The cells were continuously perfused with (in mM): 140 NaCl, 5 KCl, 1 MgCl2, 2.5 CaCl2), 10 glucose, 10 HEPES, pH 7.4 with NaOH.
To determine whether the RGCs that are kept alive for extended periods with DLK siRNA or sunitinib treatment remain functional, patch-clamp recordings were performed at two weeks in culture.
A further data set concerns kinases. Particulars: at neuroprotective concentrations; cited from earlier work.

On to `CCN(CC)CCNC(=O)c1c(C)[nH]c(/C=C2\C(=O)Nc3ccc(C(=O)N(C)C)cc32)c1C` [SR8165], for which the “Neuroprotection in the glaucoma model” value in the data set on optic nerve axons is listed as “conferred similar neuroprotection”. Further, in the data set with immunopanned RGCs, the DLK toxicity entry is “reduced DLK toxicity” and the “Neuroprotective (survival-promoting) activity on primary RGCs in culture” value (“Neuroprotective” below) is reported as “greater efficacy in vitro”.

For the compound lestautinib, in the data set on immunopanned RGCs, the “Neuroprotective” value was “promoted the survival of primary RGCs in culture”.

For `CNC(=O)c1cc(Oc2ccc(NC(=O)Nc3ccc(Cl)c(C(F)(F)F)c3)cc2)ccn1` [sorafenib], in the data set on immunopanned RGCs, the “Neuroprotective” value is listed as “lack neuroprotective activity”.

As for `CN(C)S(=O)(=O)c1ccc2c(c1)/C(=C/c1cc3c([nH]1)CCCC3)C(=O)N2` [SU6656], the “Neuroprotective” value with immunopanned RGCs is on record as “neuroprotective”.

Regarding `CCOc1cc2ncc(C#N)c(Nc3ccc(OCc4ccccn4)c(Cl)c3)c2cc1NC(=O)/C=C/CN(C)C` [neratinib], the “Toxicity in primary RGC culture” value in the data set with immunopanned RGCs was “limited by toxicity at nanomolar doses”.

For `COc1cc2c(Oc3ccc(NC(=O)C4(C(=O)Nc5ccc(F)cc5)CC4)cc3F)ccnc2cc1OCCCN1CCOCC1` [foretinib], the “Neuroprotective” value in the data set on immunopanned RGCs was “promoted the survival of primary RGCs in culture”.

`C[C@@H](Oc1cc(-c2cnn(C3CCNCC3)c2)cnc1N)c1c(Cl)ccc(F)c1Cl` [crizotinib]: in the data set with immunopanned RGCs, the “Neuroprotective” value is reported as “promoted the survival of primary RGCs in culture”.

As to `Cc1cc(Nc2cc(N3CCN(C)CC3)nc(Sc3ccc(NC(=O)C4CC4)cc3)n2)[nH]n1` [Tozasertib, tozasertib], the “Neuroprotection in the glaucoma model” value in the data set on optic nerve axons is recorded as “protected RGCs”. Also, in the data set on RGCs [1] (intravitreal slow release formulation), the “Protection of RGCs in the optic nerve transection model” value is given as “protected RGCs”. Further, in the data set on immunopanned RGCs, the “Neuroprotective” value is given as “promoted the survival of primary RGCs in culture”.

On to `CCN(CC)CCNC(=O)c1c(C)[nH]c(/C=C2\C(=O)Nc3ccc(F)cc32)c1C` [Sunitinib], for which the “Phosphorylation of targets downstream of DLK, including MKK7 and JNK” value in the data set on DLK is listed as “decrease in the phosphorylation”. For the same compound, in the data set on optic nerve axons (intravitreal drug-eluting microspheres, one month, p<0.05), the “Reduction of optic nerve axon loss” value was 40%. Moreover, the “Increase in surviving RGCs compared to control animals” value with RGCs [1] (intravitreal PLGA microspheres 7 days before transection, two weeks post-transection) is 3-4 fold. Also, the “Solubility in aqueous solution” value in data set [2] is “pH dependent”. Moreover, the “Functionality of RGCs kept alive for extended periods” value in the data set with RGCs [3] was “conducted action potentials in response to depolarizing current and were responsive to exogenously applied glutamate”. Further, the “Number of kinases inhibited” value with kinases is approximately 200 kinases. The “Neuroprotective” value in the data set with immunopanned RGCs is “dose-dependent increase in the viability of primary RGCs”.

For the compound `Cc1ccc(NC(=O)c2ccc(CN3CCN(C)CC3)cc2)cc1Nc1nccc(-c2cccnc2)n1` [imatinib], the “Neuroprotective” value in the data set with immunopanned RGCs is listed as “lack neuroprotective activity”.

As to `Clc1ccc(Nc2nnc(Cc3ccncc3)c3ccccc23)cc1` [vatalanib], in the data set with immunopanned RGCs, the “Neuroprotective” value was “lack neuroprotective activity”.

As to `O=C(c1ccc(/C=C/c2n[nH]c3ccccc23)cc1)N1CCNCC1` [KW-2449], in the data set with immunopanned RGCs, the “Neuroprotective” value is recorded as “promoted the survival of primary RGCs in culture”.

Take `COc1cc(N2CCC(N3CCN(C)CC3)CC2)ccc1Nc1ncc(Cl)c(Nc2ccccc2S(=O)(=O)C(C)C)n1` [TAE-684]: the “Toxicity in primary RGC culture” value in the data set on immunopanned RGCs was “limited by toxicity at nanomolar doses”.
